Reference: patent publication US20020128231A1 (priority 2000, published 2002)

Legend:
P-glycoprotein = P-glycoprotein (Homo sapiens, UniProt P08183); test: Rhodamine 123 transport assay across HCT-8 cell monolayers; details: compound 10 μM, Rh123 15 μM, HCT-8 cells; for inhibition at 10 μM: human, HCT-8 cell monolayers in Transwell dishes, probe Rhodamine 123 (15 μM), % Inhibition of R123 Transport
Description: The human ileocecal adenocarcinoma cell line HCT-8 was grown in RPMI-1640 medium supplemented with 10% horse serum, 1 mM sodium pyruvate and 0.01 mg/ml gentamicin. All cells were maintained in a humidified atmosphere with 5% CO2 at 37° C.
Rhodamine 123 transport was examined as previously described (Hunter J. et al., Simmons, Br. J. Cancer, 64: 437444 (1991); Kim A. E. et al., J. Pharm. Exp. Ther., 286: 1439-1445 (1998)) using HCT-8 cells. Particularly, cells were grown in 6 well Corning Transwell dishes until a tight monolayer was formed. Rh123 was added at a final concentration of 15 μM to the basal or apical compartments and 200 μl samples were taken at the indicated times from the opposite chamber. Fluorescence of Rh123 in the media samples was measured using a fluorescence plate reader with an excitation wavelength of 485 nm and an emission wavelength of 530 nm.

[1] = test system: MDR1-expressing NIH 3T3 cells; test: Cytotoxicity (MTT) assay: modulation of drug cytotoxicity in multidrug resistant cells; details: for Modulation of Drug Resistance (percentage increase in doxorubicin cytotoxicity in the presence of the compounds versus in their absence): compound 5 μM, 50 nM doxorubicin, 72 hours, MTT
Description: Cytotoxicity assays were performed with many of the compounds of Formula I to verify their usefulness as inhibitors of P-gp.
Parental NIH3T3 Swiss mouse embryo cell line was obtained from American Type Culture Collection and was grown in Dulbecco's Modified Eagles Medium supplemented with 4.5 g/L glucose, 10% fetal bovine serum, 2 mM L-glutamine, and 0.01 mg/ml gentamicin. […] All cells were maintained in a humidified atmosphere with 5% CO2 at 37° C.
Parental and MDR1-expressing NIH 3T3 cells were plated at a density of 2.5-3.0×10^3 cells/well in 96-well microtiter plates and were exposed to 50 nM of doxoriubicin, 7.5 nM vinblastine, 75 nM colchicine or 300 nM paclitaxel for 72 hours. Cell viability was determined with the colorimetric MTT (3-(4,5-dimethylthiazol-2-yl)-2,5-diphenyl tetrazolium) assay as previously described (Mosmann T., J. Immunol. Methods, 65: 55-63 (1983); Hansen M. B. et al., J. Immunol. Methods, 119: 203-210 (1989)) and the absorbance was measured at 570 nm.

Chain of P-glycoprotein (P08183 whole entry): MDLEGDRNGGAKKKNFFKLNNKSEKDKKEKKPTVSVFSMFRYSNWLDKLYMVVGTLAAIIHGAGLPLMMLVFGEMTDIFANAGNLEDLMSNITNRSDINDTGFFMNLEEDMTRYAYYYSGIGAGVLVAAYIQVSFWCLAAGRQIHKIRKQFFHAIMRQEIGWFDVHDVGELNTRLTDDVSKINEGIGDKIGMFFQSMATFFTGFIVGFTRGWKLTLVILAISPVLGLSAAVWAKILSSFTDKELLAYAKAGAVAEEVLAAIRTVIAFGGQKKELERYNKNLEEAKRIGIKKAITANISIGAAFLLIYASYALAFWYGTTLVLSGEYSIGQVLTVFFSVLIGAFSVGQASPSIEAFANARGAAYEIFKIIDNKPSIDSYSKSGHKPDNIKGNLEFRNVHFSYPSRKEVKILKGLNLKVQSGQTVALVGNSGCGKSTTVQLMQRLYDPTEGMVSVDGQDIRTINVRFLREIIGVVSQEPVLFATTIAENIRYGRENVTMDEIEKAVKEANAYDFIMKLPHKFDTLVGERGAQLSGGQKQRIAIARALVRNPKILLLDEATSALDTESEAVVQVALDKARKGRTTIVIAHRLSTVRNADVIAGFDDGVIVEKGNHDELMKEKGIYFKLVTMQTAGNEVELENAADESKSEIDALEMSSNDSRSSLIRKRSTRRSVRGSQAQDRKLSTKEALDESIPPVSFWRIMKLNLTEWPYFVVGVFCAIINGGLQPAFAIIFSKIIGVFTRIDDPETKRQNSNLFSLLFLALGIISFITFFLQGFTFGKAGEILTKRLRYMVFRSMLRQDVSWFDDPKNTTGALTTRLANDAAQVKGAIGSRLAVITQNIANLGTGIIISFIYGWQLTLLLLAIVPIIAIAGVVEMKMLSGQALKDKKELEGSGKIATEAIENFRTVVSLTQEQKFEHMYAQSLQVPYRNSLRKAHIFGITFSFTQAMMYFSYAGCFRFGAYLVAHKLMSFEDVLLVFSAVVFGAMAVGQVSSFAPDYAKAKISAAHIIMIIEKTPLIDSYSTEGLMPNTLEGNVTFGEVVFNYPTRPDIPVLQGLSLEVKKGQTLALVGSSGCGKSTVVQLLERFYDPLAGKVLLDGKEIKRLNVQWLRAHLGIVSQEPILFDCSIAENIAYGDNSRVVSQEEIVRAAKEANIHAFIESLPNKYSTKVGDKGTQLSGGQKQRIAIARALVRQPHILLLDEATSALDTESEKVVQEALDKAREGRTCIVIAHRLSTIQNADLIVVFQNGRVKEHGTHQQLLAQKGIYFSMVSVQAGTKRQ

COc1ccc(N2CCN(C(=O)CC3c4cc(OC)c(OC)cc4C(c4ccc(OC)c(OC)c4)C3C(=O)N3CCN(c4ccc(OC)cc4)CC3)CC2)cc1 (stereo not drawn) [AV-168, 2-{3-(3,4-dimethoxyphenyl)-5,6-dimethoxy-2-[4-(4-methoxyphenyl)-piperazin-1-carbonyl]-indan-1-yl}-1-[4-(4-methoxyphenyl)-1-yl]-ethanone]
% Inhibition of R123 Transport (P-glycoprotein): 81.5% | Modulation of Drug Resistance (percentage increase in doxorubicin cytotoxicity in the presence of the compounds versus in their absence) [1]: 73.81%

COc1ccc(C2c3cc(OC)c(OC)cc3C(CC(=O)N3CCN(c4ccccc4OC)CC3)C2C(=O)N2CCN(c3ccccc3OC)CC2)cc1OC (stereo not drawn) [AV-188, 2-{3-(3,4-dimethoxyphenyl)-5,6-dimethoxy-2-[4-(2-methoxyphenyl)-piperazin-1-carbonyl]-indan-1-yl}-1-[4-(2-methoxy-phenyl)-1-yl]-ethanone]
% Inhibition of R123 Transport (P-glycoprotein): 87.6% | Modulation of Drug Resistance (percentage increase in doxorubicin cytotoxicity in the presence of the compounds versus in their absence) [1]: 75.39%

COCC1C(CCN2CCN(c3ccccc3OC)CC2)c2cc(OC)c(OC)cc2C1c1ccc(OC)c(OC)c1 (stereo not drawn) [AV-202, 1{-2-[3-(3,4-dimethoxyphenyl)-5,6-dimethoxy-2-methoxymethyl-indan-1-yl]-ethyl}-4-(2-methoxyphenyl)-piperazine]
inhibition at 10 μM (P-glycoprotein): 88.4% | Modulation of Drug Resistance (percentage increase in doxorubicin cytotoxicity in the presence of the compounds versus in their absence) [1]: 59.68% | dose responsive sensitization of multidrug resistant cells to doxorubicin (FIG. 5) ([1]; doxorubicin 0-750 nM, compound 50-1000 nM): dose responsive sensitization | dose response inhibition of P-glycoprotein in the presence of vinblastine (FIG. 6) ([1]; vinblastine 0-100 nM, compound 50-1000 nM): dose response data inhibition of P-glycoprotein

COc1ccc(C2c3cc(OC)c(OC)cc3C(CC(=O)N3CCC(Cc4ccccc4)CC3)C2C(=O)N2CCC(Cc3ccccc3)CC2)cc1OC (stereo not drawn) [AV-159, 2-[2-(4-benzylpiperidine-1-carbonyl)-3-(3,4-dimethoxyphenyl)-5,6-dimethoxy-indan-1-yl]-1-(4-benzylpiperidin-1-yl)-ethanone]
inhibition at 10 μM (P-glycoprotein): 81.4% | Modulation of Drug Resistance (percentage increase in doxorubicin cytotoxicity in the presence of the compounds versus in their absence) [1]: 56.06%

CCCOc1ccc(C2c3cc(OCCC)c(OC)cc3C(CC(=O)N3CCN(c4ccccc4OCC)CC3)C2C(=O)N2CCN(c3ccccc3OCC)CC2)cc1OC (single isomer, unassigned) [AV-239-1]
% Inhibition of R123 Transport (P-glycoprotein): 90.10% | Modulation of Drug Resistance (percentage increase in doxorubicin cytotoxicity in the presence of the compounds versus in their absence) [1]: 55.3%
